Data reported in PMC8213057, “Targeting ALK2: An Open Science Approach to Developing Therapeutics for the Treatment of Diffuse Intrinsic Pontine Glioma” (Journal of Medicinal Chemistry, 2020).

Experiments:
c-Src = c-Src (Homo sapiens, UniProt P12931); conditions: 1 μM; Run 1, Run 2
DDR2 = molecular target: T1, DDR2 (Homo sapiens, UniProt Q16832); conditions: 1 μM; Run 1, Run 2
T1 sequence (Q16832 22-855): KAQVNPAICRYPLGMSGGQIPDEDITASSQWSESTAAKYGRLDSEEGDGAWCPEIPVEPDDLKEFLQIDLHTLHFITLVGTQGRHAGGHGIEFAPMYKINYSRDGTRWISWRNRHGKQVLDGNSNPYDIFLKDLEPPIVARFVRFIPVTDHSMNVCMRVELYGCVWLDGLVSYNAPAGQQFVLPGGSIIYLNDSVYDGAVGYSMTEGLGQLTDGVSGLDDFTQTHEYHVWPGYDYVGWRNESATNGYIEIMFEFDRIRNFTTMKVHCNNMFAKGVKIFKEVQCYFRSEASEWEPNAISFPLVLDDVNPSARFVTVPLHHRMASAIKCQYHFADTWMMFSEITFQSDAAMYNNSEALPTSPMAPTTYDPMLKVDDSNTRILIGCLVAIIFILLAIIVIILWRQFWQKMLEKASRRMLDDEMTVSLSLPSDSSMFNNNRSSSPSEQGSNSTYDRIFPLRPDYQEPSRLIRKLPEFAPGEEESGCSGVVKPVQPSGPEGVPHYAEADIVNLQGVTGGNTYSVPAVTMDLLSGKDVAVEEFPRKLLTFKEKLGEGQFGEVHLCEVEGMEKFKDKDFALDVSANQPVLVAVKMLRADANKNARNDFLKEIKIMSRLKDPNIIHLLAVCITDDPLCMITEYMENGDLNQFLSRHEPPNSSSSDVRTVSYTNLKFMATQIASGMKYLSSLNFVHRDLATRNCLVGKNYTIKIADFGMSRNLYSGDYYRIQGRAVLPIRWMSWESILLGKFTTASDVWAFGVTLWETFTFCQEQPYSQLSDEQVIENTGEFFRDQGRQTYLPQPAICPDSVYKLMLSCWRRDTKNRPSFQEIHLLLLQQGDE

EPHA8 = molecular target: T2, EPHA8 (Homo sapiens, UniProt P29322); conditions: 1 μM; Run 1, Run 2
T2 sequence (P29322 28-1005): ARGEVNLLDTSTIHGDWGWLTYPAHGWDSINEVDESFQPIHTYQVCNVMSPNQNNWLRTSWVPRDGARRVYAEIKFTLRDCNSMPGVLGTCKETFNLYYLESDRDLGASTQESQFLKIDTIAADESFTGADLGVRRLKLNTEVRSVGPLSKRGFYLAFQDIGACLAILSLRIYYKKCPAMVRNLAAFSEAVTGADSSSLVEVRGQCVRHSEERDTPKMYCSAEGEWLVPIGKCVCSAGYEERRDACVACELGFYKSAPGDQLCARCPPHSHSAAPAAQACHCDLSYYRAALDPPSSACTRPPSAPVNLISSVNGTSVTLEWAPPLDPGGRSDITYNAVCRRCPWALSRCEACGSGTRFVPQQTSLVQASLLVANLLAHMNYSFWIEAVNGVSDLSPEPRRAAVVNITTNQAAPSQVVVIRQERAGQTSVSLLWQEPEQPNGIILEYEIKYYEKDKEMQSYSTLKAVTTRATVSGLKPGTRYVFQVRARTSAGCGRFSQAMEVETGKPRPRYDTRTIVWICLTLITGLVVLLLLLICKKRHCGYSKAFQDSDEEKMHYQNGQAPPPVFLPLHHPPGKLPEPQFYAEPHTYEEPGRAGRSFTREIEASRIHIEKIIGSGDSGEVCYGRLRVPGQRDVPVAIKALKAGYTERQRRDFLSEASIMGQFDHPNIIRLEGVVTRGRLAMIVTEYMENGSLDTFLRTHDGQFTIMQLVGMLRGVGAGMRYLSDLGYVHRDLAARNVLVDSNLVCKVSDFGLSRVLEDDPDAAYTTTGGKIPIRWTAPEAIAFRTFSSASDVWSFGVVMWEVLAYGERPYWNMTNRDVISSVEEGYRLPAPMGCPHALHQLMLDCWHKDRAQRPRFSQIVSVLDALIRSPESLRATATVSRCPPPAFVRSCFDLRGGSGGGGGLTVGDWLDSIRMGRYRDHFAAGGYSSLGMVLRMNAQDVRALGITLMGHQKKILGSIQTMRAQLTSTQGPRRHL

p70S6K/RPS6KB1 = p70S6K/RPS6KB1 (Homo sapiens, UniProt P23443); conditions: 1 μM; Run 1, Run 2
Sequence of p70S6K/RPS6KB1 (P23443 whole entry): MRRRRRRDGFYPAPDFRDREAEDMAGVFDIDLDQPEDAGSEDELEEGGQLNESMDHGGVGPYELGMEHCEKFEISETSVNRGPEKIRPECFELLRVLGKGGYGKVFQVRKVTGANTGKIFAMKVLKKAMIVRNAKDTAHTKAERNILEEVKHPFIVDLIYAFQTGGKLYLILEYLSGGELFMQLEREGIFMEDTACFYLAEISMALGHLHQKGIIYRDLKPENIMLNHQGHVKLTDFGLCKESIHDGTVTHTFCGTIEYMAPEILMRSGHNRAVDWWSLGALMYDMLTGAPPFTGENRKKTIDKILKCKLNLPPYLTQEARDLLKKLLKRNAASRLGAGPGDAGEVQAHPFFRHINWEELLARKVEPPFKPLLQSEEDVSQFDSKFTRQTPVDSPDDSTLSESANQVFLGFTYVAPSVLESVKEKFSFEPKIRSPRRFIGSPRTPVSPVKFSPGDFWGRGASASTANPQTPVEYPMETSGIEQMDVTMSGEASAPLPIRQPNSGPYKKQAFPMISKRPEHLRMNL

SNARK/NUAK2 = molecular target: T3, SNARK/NUAK2 (Homo sapiens, UniProt Q9H093); conditions: 1 μM; Run 1, Run 2
T3 sequence (Q9H093 1-628): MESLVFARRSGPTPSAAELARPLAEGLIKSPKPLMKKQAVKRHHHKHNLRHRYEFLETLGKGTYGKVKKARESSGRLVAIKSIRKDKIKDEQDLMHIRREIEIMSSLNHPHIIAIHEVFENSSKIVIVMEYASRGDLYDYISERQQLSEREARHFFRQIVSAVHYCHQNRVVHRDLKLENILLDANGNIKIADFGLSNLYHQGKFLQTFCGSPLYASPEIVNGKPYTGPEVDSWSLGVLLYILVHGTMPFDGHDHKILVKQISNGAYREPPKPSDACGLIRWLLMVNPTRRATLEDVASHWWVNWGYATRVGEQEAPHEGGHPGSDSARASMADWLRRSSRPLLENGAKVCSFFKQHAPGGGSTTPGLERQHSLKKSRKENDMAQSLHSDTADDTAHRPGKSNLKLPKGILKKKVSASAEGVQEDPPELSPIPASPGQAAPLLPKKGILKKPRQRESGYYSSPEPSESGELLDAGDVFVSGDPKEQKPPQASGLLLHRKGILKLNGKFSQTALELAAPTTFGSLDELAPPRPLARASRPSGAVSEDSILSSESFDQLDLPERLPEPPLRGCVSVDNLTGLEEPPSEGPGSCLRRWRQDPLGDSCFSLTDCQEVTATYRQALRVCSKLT

JNK2 = JNK2 (Homo sapiens, UniProt P45984); assay: biochemical; conditions: read-out: % enzyme activity, 1 μM; Run 1, Run 2
Sequence of JNK2 (P45984 whole entry): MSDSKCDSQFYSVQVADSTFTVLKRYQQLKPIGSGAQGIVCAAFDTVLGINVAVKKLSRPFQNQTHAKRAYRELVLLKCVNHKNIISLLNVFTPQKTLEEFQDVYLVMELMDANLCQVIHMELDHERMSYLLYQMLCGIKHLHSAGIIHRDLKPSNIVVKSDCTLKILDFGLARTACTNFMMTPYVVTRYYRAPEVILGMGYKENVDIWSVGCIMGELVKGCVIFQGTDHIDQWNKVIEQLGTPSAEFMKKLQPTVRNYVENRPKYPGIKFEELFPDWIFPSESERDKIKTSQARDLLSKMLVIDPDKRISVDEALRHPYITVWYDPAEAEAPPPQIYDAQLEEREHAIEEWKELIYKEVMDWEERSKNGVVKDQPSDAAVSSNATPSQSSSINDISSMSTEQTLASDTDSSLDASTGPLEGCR

Sequence of c-Src (P12931 whole entry): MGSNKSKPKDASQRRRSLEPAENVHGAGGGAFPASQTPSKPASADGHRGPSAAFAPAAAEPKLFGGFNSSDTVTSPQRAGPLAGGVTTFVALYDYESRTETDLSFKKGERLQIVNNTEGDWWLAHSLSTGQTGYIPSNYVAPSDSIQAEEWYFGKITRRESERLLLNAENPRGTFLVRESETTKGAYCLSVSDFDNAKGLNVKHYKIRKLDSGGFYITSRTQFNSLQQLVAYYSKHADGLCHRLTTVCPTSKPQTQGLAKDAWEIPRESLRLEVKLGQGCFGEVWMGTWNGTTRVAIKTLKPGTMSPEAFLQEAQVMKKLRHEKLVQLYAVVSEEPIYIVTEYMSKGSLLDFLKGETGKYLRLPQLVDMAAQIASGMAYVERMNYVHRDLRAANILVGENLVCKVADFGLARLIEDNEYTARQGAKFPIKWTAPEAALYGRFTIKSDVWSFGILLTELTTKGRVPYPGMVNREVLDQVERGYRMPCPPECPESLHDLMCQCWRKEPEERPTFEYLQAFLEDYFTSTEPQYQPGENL

Structure (SMILES)	% enzyme activity (c-Src)	% enzyme activity (DDR2)	% enzyme activity (EPHA8)	% enzyme activity (p70S6K/RPS6KB1)	% enzyme activity (SNARK/NUAK2)	remaining activity at 1 µM (JNK2)
COc1cc(-c2cncc(-c3ccc(N4CCN(C)CC4)cc3)c2C)cc(F)c1C(N)=O [Compound 26a, 2-Fluoro-6-methoxy-4-(4-methyl-5-(4-(4-methylpiperazin-1-yl)phenyl)pyridin-3-yl)benzamide]	96.22%	96.68%	94.54%	96.69%	93.71%	93.4%
COc1cc(-c2cncc(-c3ccc(N4C[C@@H](C)N(C)[C@@H](C)C4)cc3)c2C)cc(F)c1C(N)=O [Compound 26c, 2-Fluoro-6-methoxy-4-(4-methyl-5-(4-((3R,5S)-3,4,5-trimethylpiperazin-1-yl)phenyl)pyridin-3-yl)benzamide]	97.10%	92.27%	97.01%	99.76%	94.38%	94.7%
